From patent publication US12337005B2, “Methods of treating thrombosis” (UNIVERSITY OF IOWA RESEARCH FOUNDATION, priority 2020, dated 2025)

Columns and labels:
mouse platelets = assay: Glucose uptake assay, mouse platelets; format: cell-based; details: mouse platelets stimulated with convulxin or thrombin
Procedure: Glucose uptake was determined in activated versus non-activated platelets using 10 mM ^14C-2-deoxy-glucose. Washed platelets (2×10^8/mL) treated with vehicle (DMSO) or ML265 (50 and 100 μM) were incubated in 1× Tyrode buffer and stimulated with convulxin or thrombin for 10 minutes, placed on ice and then centrifuged at 4000 rpm for 5 minutes. The pellets were washed with cold 1×PBS and solubilized in 1N NAOH. Radioactive counts were determined using a Perkin Elmer TriCarb 2800TR liquid scintillation counter.

human platelets = assay: P-selectin expression (α-granule secretion), human platelets; format: cell-based; details: stimulus-activated human platelets pretreated with ML265
Procedure: (§1) Platelets (1×10^8 cells in 100 μl) were pre-incubated for 10 min either in presence or absence of ML265 (50 and 100 μM) then stimulated by convulxin or TRAP without stirring. Following this, platelets were labeled with PE-labeled anti-CD61 antibody and FITC conjugated anti-CD62P antibody. The platelet samples were incubated for 30 min in the dark at room temperature and analyzed on the flow cytometer (FACS Calibur, Becton Dickinson). An amorphous region (gate) was drawn to differentiate the platelets from the noise and multi-platelet particles. After compensation for FITC and PE, CD61-positive 10,000 events were collected for each sample.

murine platelets = assay: P-selectin expression (α-granule secretion), mouse platelets; format: cell-based; details: stimulus-activated mouse platelets pretreated with ML265
Procedure: as §1

human whole blood = assay: Bioflux flow chamber assay, human whole blood on collagen; format: cell-based
Procedure: In vitro thrombosis assays were performed using BioFlux™ 200 (Fluxion Biosciences, USA) microfluidics flow chamber (Nayak et al., 2018). The channels were coated with Type I collagen (100 μg/ml) for one hour at room temperature and then blocked with 0.5% BSA for 30 minutes. Platelets were isolated from citrated whole blood as described above, washed, labeled with the fluorescent dye (calcein AM; 2 μM) and were reconstituted back with PPP and remaining blood containing leukocytes and RBC. The whole blood pretreated with ML265 or vehicle (DMSO) was perfused over the collagen-coated plate at shear stress 1500 s^−1 for 5 minutes. Experiments were performed in triplicates using whole blood from human and mice. The fluorescently labeled platelets/thrombi on the collagen-coated surface were analyzed using ImageJ software from NIH (Bethesda, MD, USA).

[1] = tested on: male wild-type mice on C57B16/J background; assay: FeCl3 injury-induced carotid artery thrombosis; format: in vivo, mouse
Procedure: (§2) Initially ML265 dissolved in DMSO was mixed with 200 μl of deionized water and administered intra-peritoneally to the at a dose of 25 and 50-mg/Kg body weight. In vivo thrombosis and tail transection assays were performed 10 minutes after administration of ML265 or vehicle infusion by a person who was blinded to the drug and vehicle infusion.
Thrombus formation in the carotid artery after the FeCl3 injury was assessed by intravital microscopy. Briefly, 8-10 weeks old mice were anesthetized using 100-mg/kg ketamine and 10-mg/kg xylazine. Platelets labeled with calcein green (2.5×10^9 platelets per kg) were infused through the retro-orbital plexus. The common carotid artery was carefully exposed and kept moist by super-fusion with warm (˜37° C.) saline. Whatman paper (0.5×1.5 mm) saturated with ferric chloride (5%) solution was applied topically for 1.5 minutes for male and 2 mins for female mice, and thrombus formation in the injured carotid vessel was monitored in real time using a Nikon upright microscope (Plan Fluor 4×/0.2 objective), and thrombus growth overtime was recorded using a high-speed electron-multiplying camera for 40 minutes or until occlusion occurred. The time to form occlusive thrombus was considered as the time required for blood to stop flowing completely for >1 minute. Videos were evaluated off-line using a Nikon computer-assisted image analysis program.

male mice = assay: Tail bleeding assay; format: in vivo, mouse; details: male mice pretreated with ML265
Procedure: as §2
Tail-transection bleeding time was measured. Briefly, mice (approximately 8 weeks of age) were anesthetized with 100-mg/kg ketamine and 10-mg/kg xylazine and placed on a heating pad warmed at 37° C., and a 3 mm segment of the tail was amputated with a sharp scalpel blade. The tail was immediately immersed in saline (at 37° C.), and the time taken for the stream of blood to stop for more than 30 seconds was defined as the bleeding time.

[2] = tested on: platelets from obese mice; assay: Platelet aggregation, platelets from obese mice; format: cell-based, mouse; details: collagen (1 μg/mL) and thrombin (0.02 U/mL)
Source text: (§3) FIGS. 16A-16D. ML265 inhibits platelet aggregation and arterial thrombosis in pre-existing comorbid condition of obesity. Wild-type (C57BL6/J) mice fed a chow and high-fat diet (Cat #TD.06414, Envigo, 60% Kcal from fat) for 4 months. (A) Blood glucose levels (B) Blood glucose levels during the insulin tolerance test. Statistics (A & B): Two-way ANOVA with Tukey's multiple comparisons test (*P<0.05, **P<0.01, ***P<0.001, ****P<0.0001; n=10 mice/group). (C) Platelet rich plasma or washed platelets from obese mice were pretreated with vehicle or ML265 and stimulated with agonists including collagen (1 μg/mL) and thrombin (0.02 U/mL). The results are represented as percent change light transmission after subtracting the blank (platelet poor plasma/Tyrode's buffer). […]
Platelet rich plasma (PRP) or washed platelets (2×10^8/ml) treated with vehicle (DMSO) or ML265 (50 and 100 μM) were stirred (1200 rpm) at 37° C. for 2 min in a whole blood/optical lumi-aggregometer (Chrono-log; model 700-2) before the addition of agonists (convulxin, collagen, thrombin, PAR4, TRAP (PAR1 agonist) or adenosine diphosphate [ADP]). Aggregation was measured as percent change in light transmission, where 100% refers to transmittance through the blank sample (PRP/Buffer). Platelet dense granule secretion was determined by measuring the release of ATP using luciferin-luciferase reagent. […]

[3] = tested on: male obese mice (fed a high-fat diet for 4 months); assay: FeCl3-injury induced carotid artery thrombosis in obese mice; format: in vivo, mouse; details: 5.0% FeCl3 injury, infused with ML265
Source text: as §3
Thrombus formation in the carotid artery after the FeCl3 injury was assessed by intravital microscopy. […] Whatman paper (0.5×1.5 mm) saturated with ferric chloride (5%) solution was applied topically for 1.5 minutes for male and 2 mins for female mice, and thrombus formation in the injured carotid vessel was monitored in real time using a Nikon upright microscope (Plan Fluor 4×/0.2 objective), and thrombus growth overtime was recorded using a high-speed electron-multiplying camera for 40 minutes or until occlusion occurred. […] Videos were evaluated off-line using a Nikon computer-assisted image analysis program.

[4] = cited from earlier work

SMILES: Cn1c2cc([S+](C)[O-])sc2c2cnn(Cc3cccc(N)c3)c(=O)c21 (stereo not shown) [ML265, 6-[(3-aminophenyl)methyl]-4,6-dihydro-4-methyl-2-(methylsulfinyl)-5H-thieno[2′,3′:4,5]pyrrolo[2,3-d]pyridazine-5-one]
- glucose uptake (mouse platelets): reduced
- α-granule secretion (P-selectin exposure) (human platelets): significant decrease
- α-granule secretion (P-selectin exposure) (murine platelets): significant decrease
- reduction in the thrombus growth rate vs vehicle control (human whole blood; ML265 150 μM, collagen, 1500 s-1): ~5 fold
- reduction in percent of the area covered by platelets vs vehicle control (human whole blood; ML265 150 μM, collagen, 1500 s-1, 5 minutes): ~5 fold
- rate of thrombus growth (slope over time) (human whole blood; ML265 150 μM, vehicle slope 237.3): 37.92
- thrombus formation vs vehicle control (human whole blood; ML265 50 or 100 μM, collagen, 1500 s-1, 5 minutes): no significant difference
- mice that did not occlude ([1]; ML265-pretreated wild-type mice): 50%
- time to occlusion, a large number of ML265 pre-treated mice (did not occlude) ([1]; control group approximately 20 mins): > 40 min
- rate of thrombus growth (slope over time) ([1]; male mice pretreated with ML265, 5% FeCl3, vehicle slope 4.862): 1.531
- time to complete vessel occlusion vs vehicle ([1]; male wild-type mice pretreated with ML265): significantly prolonged
- reduction in the extent of thrombus growth vs vehicle ([1]; male wild-type mice, ML265 i.p. 10 minutes before 5% FeCl3 injury): ~4 fold
- mean time to cessation of bleeding (tail-transection bleeding time) vs vehicle (male mice): comparable
- platelet aggregation in pre-existing comorbid condition of obesity [2]: inhibited
- arterial thrombosis in pre-existing comorbid condition of obesity [3]: inhibited
- half-life [4]: short
